According to the supplement of paper PMC10307832:

What was measured:
Experiment in all cases: relative viability (nuclei count vs DMSO), 5 days (fraction); higher = more cells survive
Salubrinal + Linsitinib = compound: O=C(/C=C/c1ccccc1)NC(NC(=S)Nc1cccc2cccnc12)C(Cl)(Cl)Cl [Salubrinal] + C[C@]1(O)C[C@@H](c2nc(-c3ccc4ccc(-c5ccccc5)nc4c3)c3c(N)nccn32)C1 [Linsitinib] (partner 1 µM)
Summary of the method: (§1)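 Values are medians from duplicate plates. Each reflects relative viability, defined as the nuclei count of treated wells over that of vehicle wells. Lung cancer cell lines in 1536-well plates were pin-tool dosed one day after seeding with one drug alone or with a fixed anchor-drug dose plus five library-drug doses (not always all listed) in √10 steps, then fixed, stained and imaged at 4× after 5 days.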

Salubrinal + Palbociclib = compound: O=C(/C=C/c1ccccc1)NC(NC(=S)Nc1cccc2cccnc12)C(Cl)(Cl)Cl [Salubrinal] + CC(=O)c1c(C)c2cnc(Nc3ccc(N4CCNCC4)cn3)nc2n(C2CCCC2)c1=O [Palbociclib] (partner 0.5 µM)
Summary of the method: as §1

[1] = compound: Cc1ccc2nc(NCCN)c3ncc(C)n3c2c1 + Cc1cc(Nc2cc(N3CCN(C)CC3)nc(Sc3ccc(NC(=O)C4CC4)cc3)n2)n[nH]1 [Tozasertib] (partner 0.1 µM)
Summary of the method: as §1

Salubrinal + Navitoclax = compound: O=C(/C=C/c1ccccc1)NC(NC(=S)Nc1cccc2cccnc12)C(Cl)(Cl)Cl [Salubrinal] + CC1(C)CCC(c2ccc(Cl)cc2)=C(CN2CCN(c3ccc(C(=O)NS(=O)(=O)c4ccc(N[C@H](CCN5CCOCC5)CSc5ccccc5)c(S(=O)(=O)C(F)(F)F)c4)cc3)CC2)C1 [Navitoclax] (partner 0.5 µM)
Summary of the method: as §1

Cell Line	relative viability (Salubrinal + Linsitinib; first compound 0.08 µM)	relative viability (Salubrinal + Linsitinib; first compound 0.253 µM)	relative viability (Salubrinal + Linsitinib; first compound 0.8 µM)	relative viability (Salubrinal + Linsitinib; first compound 2.53 µM)	relative viability (Salubrinal + Linsitinib; first compound 8 µM)	relative viability (Salubrinal + Palbociclib; first compound 0.08 µM)	relative viability (Salubrinal + Palbociclib; first compound 0.253 µM)	relative viability (Salubrinal + Palbociclib; first compound 0.8 µM)	relative viability (Salubrinal + Palbociclib; first compound 2.53 µM)	relative viability (Salubrinal + Palbociclib; first compound 8 µM)	relative viability ([1]; first compound 0.04 µM)	relative viability ([1]; first compound 0.1265 µM)	relative viability ([1]; first compound 0.4 µM)	relative viability ([1]; first compound 1.265 µM)	relative viability ([1]; first compound 4 µM)	relative viability (Salubrinal + Navitoclax; first compound 0.08 µM)	relative viability (Salubrinal + Navitoclax; first compound 0.253 µM)	relative viability (Salubrinal + Navitoclax; first compound 0.8 µM)	relative viability (Salubrinal + Navitoclax; first compound 2.53 µM)	relative viability (Salubrinal + Navitoclax; first compound 8 µM)
COR-L23	1.16	0.676	1.24	1	0.888	0.356	0.31	0.312	0.331	0.208	0.202	0.243	0.218	0.135	0.173	1.2	0.952	1.15	0.927	0.865
NCI-H2087	1.01	0.942	0.98	0.782	1.02	0.214	0.235	0.17	0.234	0.206	0.282	0.222	0.288	0.204	0.179	1.04	1.02	1.11	0.964	0.945
LC-2-ad	0.932	0.812	0.912	0.817	0.844	0.499	0.403	0.586	0.478	0.403	0.445	0.491	0.533	0.387	0.42	0.5	0.35	0.666	0.54	0.413
NCI-H1915	1.02	1.06	1.16	1.1	1.13	0.506	–	0.576	0.559	0.568	0.481	0.492	–	0.432	0.416	0.774	0.778	0.83	0.759	0.774
NCI-H2023	0.707	0.573	0.676	0.777	0.706	0.346	0.32	0.359	0.419	0.328	0.333	0.395	0.361	0.32	0.251	1.05	0.733	0.96	1.01	0.932
COR-L 105	1.04	1.03	0.737	0.953	0.776	0.311	0.405	0.364	0.408	0.385	0.374	0.355	0.294	0.353	0.302	0.715	0.718	0.76	0.765	0.723
RERF-LC-KJ	0.896	0.806	0.931	0.791	0.846	1.14	1.04	1.13	1.09	0.964	0.512	0.506	0.561	0.456	0.32	0.858	1.24	0.816	0.945	0.83
LXF-289	1.04	0.861	1.03	0.968	0.893	0.678	0.478	0.633	0.578	0.578	0.186	0.192	0.163	0.178	0.212	0.99	0.898	1.04	0.943	0.868
PC-14	1.02	0.899	1.06	0.975	0.892	0.708	0.434	0.609	0.47	0.384	0.604	0.524	0.514	0.481	0.414	1.05	1.01	1	1.07	0.864
NCI-H1666	0.78	0.777	0.869	0.735	0.797	0.687	0.593	0.632	0.641	0.603	0.665	0.676	0.677	0.502	0.544	0.979	0.992	1.24	0.93	0.878
NCI-H2085	1.03	0.754	0.896	0.787	0.868	0.457	0.471	0.484	0.438	0.427	0.801	0.765	0.881	0.703	0.802	1.26	1	1.23	1.07	1.21
NCI-H1734	0.931	0.858	1.02	0.976	0.826	0.393	0.334	0.392	0.344	0.343	0.275	0.258	0.211	0.237	0.243	0.938	0.755	0.964	0.858	0.745
NCI-H2126	0.716	0.707	0.748	0.693	0.689	0.382	0.383	0.363	0.388	0.386	0.955	0.857	0.869	0.852	0.734	0.897	0.913	0.914	0.808	0.867
EMC-BAC-2	0.901	0.682	0.856	0.77	0.858	0.493	0.493	0.541	0.525	0.524	0.297	0.282	0.313	0.265	0.288	1.53	1.01	1.2	1.16	1.15
NCI-H1993	0.757	0.722	0.775	0.805	0.816	0.718	0.596	0.737	–	0.648	0.602	0.593	0.543	0.566	0.581	1.02	0.902	0.976	0.799	0.733
NCI-H520	1.16	0.688	1.25	1.12	1.17	0.25	0.225	0.23	0.21	0.271	0.476	0.458	0.371	0.424	0.405	1.16	1.04	1.32	1.11	1.18

Cell Line	relative viability (Salubrinal + Linsitinib; first compound 0.08 µM)	relative viability (Salubrinal + Linsitinib; first compound 0.253 µM)	relative viability (Salubrinal + Linsitinib; first compound 0.8 µM)	relative viability (Salubrinal + Linsitinib; first compound 2.53 µM)	relative viability (Salubrinal + Linsitinib; first compound 8 µM)	relative viability (Salubrinal + Palbociclib; first compound 0.08 µM)	relative viability (Salubrinal + Palbociclib; first compound 0.253 µM)	relative viability (Salubrinal + Palbociclib; first compound 0.8 µM)	relative viability (Salubrinal + Palbociclib; first compound 2.53 µM)	relative viability (Salubrinal + Palbociclib; first compound 8 µM)	relative viability ([1]; first compound 0.04 µM)	relative viability ([1]; first compound 0.1265 µM)	relative viability ([1]; first compound 0.4 µM)	relative viability ([1]; first compound 1.265 µM)	relative viability ([1]; first compound 4 µM)	relative viability (Salubrinal + Navitoclax; first compound 0.08 µM)	relative viability (Salubrinal + Navitoclax; first compound 0.253 µM)	relative viability (Salubrinal + Navitoclax; first compound 0.8 µM)	relative viability (Salubrinal + Navitoclax; first compound 2.53 µM)	relative viability (Salubrinal + Navitoclax; first compound 8 µM)
NCI-H647	1.26	1.26	1.48	1.07	1.27	0.56	0.37	0.39	0.431	0.347	0.246	0.306	0.356	0.281	0.128	1.31	1.12	1.22	1.07	1.03
SK-LU-1	1.26	1.19	1.37	1.02	1.16	0.368	0.377	0.411	0.427	0.341	0.378	0.373	0.392	0.339	0.308	0.917	0.745	1.02	0.859	0.864
NCI-H2009	1.16	1.17	1.28	1.2	1.14	0.224	0.171	0.197	0.225	0.172	0.754	0.725	0.72	0.734	0.541	1.16	1.18	1.19	1.17	1.07
LOU-NH91	1.02	0.949	0.996	0.955	0.93	0.6	0.565	0.521	0.556	0.569	0.654	0.628	0.638	0.626	0.617	0.81	0.73	0.737	0.699	0.617
NCI-H2405	1.07	1	0.861	0.889	0.843	0.536	0.484	0.55	0.524	0.521	0.731	0.723	0.708	0.639	0.68	0.942	0.957	0.793	0.82	0.905
LCLC-97TM1	0.222	0.214	0.221	–	0.243	0.236	0.224	0.221	0.227	0.265	0.201	0.215	0.177	0.218	0.187	0.368	0.648	0.464	–	0.433
NCI-H727	0.347	0.33	0.323	0.326	0.323	0.672	0.585	0.656	0.605	0.691	0.599	0.688	0.704	0.578	0.641	0.519	0.482	0.443	0.395	0.474
H3255	0.982	0.905	1.2	1.04	0.974	0.315	0.344	0.319	0.299	0.332	0.703	0.55	0.629	0.477	0.455	0.637	0.481	0.582	0.523	0.564
NCI-H1437	1.27	0.691	1.19	1.06	0.853	0.321	0.334	0.327	0.315	0.322	0.412	0.399	0.39	0.364	0.368	1.14	1.06	1.16	1.08	1.09
LU99A	0.611	0.545	0.579	0.59	0.515	0.419	0.425	0.458	0.388	0.447	0.308	0.292	0.248	0.298	0.263	0.942	0.864	0.798	0.858	0.828
SK-MES-1	1.12	1.04	1.05	1.07	1.08	0.33	0.356	0.33	0.305	0.259	0.898	0.904	0.921	0.929	0.678	1.39	1.12	1.33	1.24	1.12
HCC-827	0.992	0.9	1	0.97	0.941	0.49	0.441	0.514	0.475	0.48	0.465	0.433	0.454	0.459	0.425	1.03	0.958	1.1	1.05	0.979
LK-2	0.558	0.521	0.762	0.757	0.723	0.708	0.781	0.683	0.597	0.788	0.171	0.174	0.152	0.154	0.179	1.07	0.793	1.05	0.958	0.921
HCC-366	1.01	0.408	0.883	0.671	0.57	0.464	–	0.44	0.385	0.315	0.119	0.135	0.215	0.116	0.221	1.27	0.871	0.985	0.975	0.971
BEN	1.15	0.624	1.23	0.931	0.892	0.453	0.444	0.484	0.457	0.463	0.501	0.436	0.498	0.469	0.559	0.0699	0.0611	0.0613	0.0706	0.0675
NCI-H23	0.576	0.473	0.516	0.67	0.535	0.635	0.387	0.598	0.46	0.501	0.707	0.403	0.451	0.301	0.422	1.01	0.722	0.91	0.759	1.04
